Reference: patent US20150296790A1, “SILICON-CONTAINING COMPOUND AQUEOUS SOLUTION AND ANTIBACTERIAL/ANTIVIRAL AGENT INCLUDING SAID SOLUTION” (JEX CO., LTD., priority 2012, published 2015)

Assay: Solubility of CD (clarity and stability, visual)
Assay type: physicochemical
Design: key to Solubility of CD: Stability: OK: When the aqueous CD solution did not exhibit the conditions such as presence of precipitates and deposits, the solution was considered as stable; NG: When the aqueous CD solution exhibited the conditions such as presence of precipitates and deposits, the solution was not considered as stable; key to Solubility of CD: Clarity: When the CD aqueous solution was clear, the solution was rated as “OK”; When the solution was not clear, the solution was rated as “NG”
Method: “Clarity” in “Solubility of CD” in the tables was determined by sequentially adding the CD and purified water at the respective ratio to a predetermined screw-cap bottle and stirring the mixture in the sealed bottle on a shaker to prepare the respective aqueous CD solution, which was then visually evaluated for clarity immediately after the preparation. When the CD aqueous solution was clear, the solution was rated as “OK”. When the solution was not clear, the solution was rated as “NG”. “Stability” in “Solubility of CD” in the tables was determined by allowing the respective aqueous CD solution after preparation to stand at ambient temperature for a predetermined period and then visually evaluating the conditions (such as presence of precipitates and deposits) of the solution.

[1] = Ratio of CD Alone 1 w/w % in purified water
[2] = Ratio of CD Alone 2-6 w/w % in purified water
[3] = Ratio of CD Alone 7 w/w % in purified water
[4] = Ratio of CD Alone 8-10 w/w % in purified water
[5] = Ratio of CD Alone 2-10 w/w % in purified water
[6] = Ratio of CD Alone 2 w/w % in purified water
[7] = Ratio of CD Alone 3 w/w % in purified water
[8] = Ratio of CD Alone 4-5 w/w % in purified water
[9] = Ratio of CD Alone 6 w/w % in purified water
[10] = Ratio of CD Alone 7-9 w/w % in purified water
[11] = Ratio of CD Alone 10 w/w % in purified water
[12] = Ratio of CD Alone 15 w/w % in purified water
[13] = Ratio of CD Alone 20 w/w % in purified water
[14] = Ratio of CD Alone 25 w/w % in purified water

OC[C@H]1O[C@@H]2O[C@H]3[C@H](O)[C@@H](O)[C@@H](O[C@H]4[C@H](O)[C@@H](O)[C@@H](O[C@H]5[C@H](O)[C@@H](O)[C@@H](O[C@H]6[C@H](O)[C@@H](O)[C@@H](O[C@H]7[C@H](O)[C@@H](O)[C@@H](O[C@H]1[C@H](O)[C@H]2O)O[C@@H]7CO)O[C@@H]6CO)O[C@@H]5CO)O[C@@H]4CO)O[C@@H]3CO [α, α-cyclodextrin]
NG: Solubility of CD: Clarity [4] | Solubility of CD: Stability [4]
OK: Solubility of CD: Clarity [1] | Solubility of CD: Stability [1] | Solubility of CD: Clarity [2] | Solubility of CD: Stability [2] | Solubility of CD: Clarity [3] | Solubility of CD: Stability [3]

OC[C@H]1O[C@@H]2O[C@H]3[C@H](O)[C@@H](O)[C@@H](O[C@H]4[C@H](O)[C@@H](O)[C@@H](O[C@H]5[C@H](O)[C@@H](O)[C@@H](O[C@H]6[C@H](O)[C@@H](O)[C@@H](O[C@H]7[C@H](O)[C@@H](O)[C@@H](O[C@H]8[C@H](O)[C@@H](O)[C@@H](O[C@H]1[C@H](O)[C@H]2O)O[C@@H]8CO)O[C@@H]7CO)O[C@@H]6CO)O[C@@H]5CO)O[C@@H]4CO)O[C@@H]3CO [β, β-cyclodextrin]
OK: Solubility of CD: Clarity [1] | Solubility of CD: Stability [1]
NG: Solubility of CD: Clarity [5] | Solubility of CD: Stability [5]

OC[C@H]1O[C@@H]2O[C@H]3[C@H](O)[C@@H](O)[C@@H](O[C@H]4[C@H](O)[C@@H](O)[C@@H](O[C@H]5[C@H](O)[C@@H](O)[C@@H](O[C@H]6[C@H](O)[C@@H](O)[C@@H](O[C@H]7[C@H](O)[C@@H](O)[C@@H](O[C@H]8[C@H](O)[C@@H](O)[C@@H](O[C@H]9[C@H](O)[C@@H](O)[C@@H](O[C@H]1[C@H](O)[C@H]2O)O[C@@H]9CO)O[C@@H]8CO)O[C@@H]7CO)O[C@@H]6CO)O[C@@H]5CO)O[C@@H]4CO)O[C@@H]3CO [γ, γ-cyclodextrin]
NG: Solubility of CD: Clarity [12] | Solubility of CD: Clarity [13] | Solubility of CD: Clarity [14] | Solubility of CD: Stability [14]
OK: Solubility of CD: Clarity [1] | Solubility of CD: Stability [1] | Solubility of CD: Clarity [6] | Solubility of CD: Stability [6] | Solubility of CD: Clarity [7] | Solubility of CD: Stability [7] | Solubility of CD: Clarity [8] | Solubility of CD: Stability [8] | Solubility of CD: Clarity [9] | Solubility of CD: Stability [9] | Solubility of CD: Clarity [10] | Solubility of CD: Stability [10] | Solubility of CD: Clarity [11] | Solubility of CD: Stability [11] | Solubility of CD: Stability [12] | Solubility of CD: Stability [13]
